Test results published in patent US12209102B2, “Heterocyclic compounds and uses thereof” (Kumquat Biosciences Inc., priority 2022, dated 2025).

Legend:
GP2D cells = experiment: Ras cellular assay, growth of cells with K-Ras G12D mutation (CellTiter-Glo); format: cell-based; details: cell growth, Example 9, G12D mutation, read-out: IC50 against GP2D cells
K-Ras G12V = target: T1, K-Ras G12V (Homo sapiens, UniProt P01116, G12V); experiment: HTRF resonance energy transfer assay, K-Ras G12V / SOS1 interaction; format: biochemical; details: HTRF assay of Example 5; read-out: IC50 against K-Ras G12V
T1 construct: made in house; host or cells: E. coli BL21 (DE3)
T1 sequence (P01116 1-188 isoform P01116-2 G12V): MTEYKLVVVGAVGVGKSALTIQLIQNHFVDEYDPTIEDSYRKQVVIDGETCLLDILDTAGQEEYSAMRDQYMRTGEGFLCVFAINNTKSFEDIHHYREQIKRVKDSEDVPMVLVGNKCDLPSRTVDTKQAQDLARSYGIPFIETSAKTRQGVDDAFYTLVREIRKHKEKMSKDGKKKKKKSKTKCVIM
Outline: (§1)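 Read-out: HTRF 665/620 nm ratio (excitation 337 nm) after roughly 10 min or longer incubation, used to derive IC50. Donor anti-GST-Eu on GST-K-Ras; acceptor anti-6His-XL665 on His-hSOS1. Duplicate dose series from 10 μM down to 0.01 μM.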

K-Ras WT = target: T2, K-Ras WT (Homo sapiens, UniProt P01116); experiment: HTRF resonance energy transfer assay, K-Ras WT / SOS1 interaction; format: biochemical; details: HTRF assay of Example 5; read-out: IC50 against K-Ras WT
T2 construct: made in house; host or cells: E. coli BL21 (DE3)
T2 sequence (P01116 1-188 isoform P01116-2): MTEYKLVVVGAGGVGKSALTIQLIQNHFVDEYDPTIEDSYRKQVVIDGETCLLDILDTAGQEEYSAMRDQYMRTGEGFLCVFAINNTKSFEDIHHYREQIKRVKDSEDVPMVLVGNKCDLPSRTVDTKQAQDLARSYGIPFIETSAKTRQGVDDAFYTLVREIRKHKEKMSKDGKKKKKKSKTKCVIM
Outline: as §1

K-Ras G12D = target: T3, K-Ras G12D (Homo sapiens, UniProt P01116, G12D); experiment: HTRF resonance energy transfer assay, K-Ras G12D / SOS1 interaction; format: biochemical; details: HTRF assay of Example 5; read-out: IC50 against K-Ras G12D
T3 construct: made in house; host or cells: E. coli BL21 (DE3)
T3 sequence (P01116 1-188 isoform P01116-2 G12D): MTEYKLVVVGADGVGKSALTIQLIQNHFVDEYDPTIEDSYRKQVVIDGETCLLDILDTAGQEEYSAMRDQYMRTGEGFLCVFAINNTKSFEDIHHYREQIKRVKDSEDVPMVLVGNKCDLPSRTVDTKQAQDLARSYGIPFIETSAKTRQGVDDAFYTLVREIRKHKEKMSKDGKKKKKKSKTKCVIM
Outline: as §1

K-Ras G12S = target: T4, K-Ras G12S (Homo sapiens, UniProt P01116, G12S); experiment: HTRF resonance energy transfer assay, K-Ras G12S / SOS1 interaction; format: biochemical; details: HTRF assay of Example 5; read-out: IC50 against K-Ras G12S
T4 construct: made in house; host or cells: E. coli BL21 (DE3)
T4 sequence (P01116 1-188 isoform P01116-2 G12S): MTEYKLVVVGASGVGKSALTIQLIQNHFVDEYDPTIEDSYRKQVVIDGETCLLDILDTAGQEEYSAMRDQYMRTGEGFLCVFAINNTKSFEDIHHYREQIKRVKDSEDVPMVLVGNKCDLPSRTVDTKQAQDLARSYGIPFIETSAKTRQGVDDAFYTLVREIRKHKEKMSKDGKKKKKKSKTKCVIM
Outline: as §1

A549 cells = experiment: Ras cellular assay, growth of cells with K-Ras G12S mutation (CellTiter-Glo); format: cell-based; details: Homo sapiens, cell growth, Example 9, G12S mutation, read-out: IC50 against A549 cells
Outline: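 A549 cells (K-Ras G12S) in RPMI-1640 with 10% heat-inactivated FBS, seeded e.g. 800 per well in standard or ultra-low-attachment 384-well plates, treated next day with a dilution series (e.g. 10-point, 3-fold). Viability by CellTiter-Glo luminescence about 6 days later; IC50 from four-parameter fit.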

SW620 cells = experiment: Ras cellular assay, growth of cells with K-Ras G12V mutation (CellTiter-Glo); format: cell-based; details: Homo sapiens, SW-620; cell growth, Example 9, G12V mutation; read-out: IC50 against SW620 cells
Outline: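 SW620 (K-Ras G12V) cells, e.g. 800/well in RPMI-1640 with 10% heat-inactivated FBS on standard or ultra-low attachment plates, were dosed the day after plating with e.g. a 10-point 3-fold series. Viability by CellTiter-Glo luminescence about 6 days later; IC50 from four-parameter fit.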

IC50 (K-Ras G12V) | IC50 (K-Ras WT) | IC50 (K-Ras G12D) | IC50 (K-Ras G12S) | IC50 (A549 cells) | IC50 (SW620 cells) | Structure (SMILES) | IC50 (GP2D cells)
– | – | – | – | – | – | N#Cc1c(N)sc2c(F)ccc(-c3c(Cl)c4c5c(nc(OC[C@@]67CCCN6C[C@H](F)C7)nc5c3F)N(C3CCOC3)[C@@H](C(F)F)CO4)c12 (stereo partly drawn) [Compound 871, 2-amino-4-((5R)-8-chloro-5-(difluoromethyl)-10-fluoro-2-(((2R,7aS)-2-fluorotetrahydro-1H-pyrrolizin-7a(5H)-yl)methoxy)-4-(tetrahydrofuran-3-yl)-5,6-dihydro-4H-[1,4]oxazepino[5,6,7-de]quinazolin-9-yl)-7-fluorobenzo[b]thiophene-3-carbonitrile] | < 500 nM
< 100 nM | < 100 nM | < 100 nM | < 100 nM | – | – | N#Cc1c(N)sc2c(F)ccc(-c3c(Cl)c4c5c(nc(OC[C@@]67CCCN6C[C@H](F)C7)nc5c3F)N([C@@H]3CCNC3)CCO4)c12 [Compound 1124, 2-amino-4-(8-chloro-10-fluoro-2-(((2R,7aS)-2-fluorotetrahydro-1H-pyrrolizin-7a(5H)-yl)methoxy)-4-((R)-pyrrolidin-3-yl)-5,6-dihydro-4H-[1,4]oxazepino[5,6,7-de]quinazolin-9-yl)-7-fluorobenzo[b]thiophene-3-carbonitrile] | < 500 nM
< 100 nM | < 100 nM | < 100 nM | < 100 nM | – | – | N#Cc1c(N)sc2c(F)ccc(-c3c(Cl)c4c5c(nc(OC[C@@]67CCCN6C[C@H](F)C7)nc5c3F)N(CC(F)F)[C@@H](C3(O)CC3)CO4)c12 [Compound 707, 2-amino-4-((R)-8-chloro-4-(2,2-difluoroethyl)-10-fluoro-2-(((2R,7aS)-2-fluorotetrahydro-1H-pyrrolizin-7a(5H)-yl)methoxy)-5-(1-hydroxycyclopropyl)-5,6-dihydro-4H-[1,4]oxazepino[5,6,7-de]quinazolin-9-yl)-7-fluorobenzo[b]thiophene-3-carbonitrile] | < 500 nM
– | – | – | – | – | – | N#Cc1c(N)sc2c(F)ccc(-c3c(Cl)c4c5c(nc(OC[C@@]67CCCN6C[C@H](F)C7)nc5c3F)N(C3CC(NC=O)C3)CCO4)c12 (stereo partly drawn) [Compound 988, N-(3-(9-(2-amino-3-cyano-7-fluorobenzo[b]thiophen-4-yl)-8-chloro-10-fluoro-2-(((2R,7aS)-2-fluorotetrahydro-1H-pyrrolizin-7a(5H)-yl)methoxy)-5,6-dihydro-4H-[1,4]oxazepino[5,6,7-de]quinazolin-4-yl)cyclobutyl)formamide] | < 500 nM
– | – | – | – | – | – | N#Cc1c(N)sc2c(F)ccc(-c3c(Cl)c4c5c(nc(OC[C@@]67CCCN6C[C@H](F)C7)nc5c3F)N(C3CCC5(C3)CN(C(=O)C3CC3)C5)CCO4)c12 (stereo partly drawn) [Compound 650, 2-amino-4-(8-chloro-4-(2-(cyclopropanecarbonyl)-2-azaspiro[3.4]octan-6-yl)-10-fluoro-2-(((2R,7aS)-2-fluorotetrahydro-1H-pyrrolizin-7a(5H)-yl)methoxy)-5,6-dihydro-4H-[1,4]oxazepino[5,6,7-de]quinazolin-9-yl)-7-fluorobenzo[b]thiophene-3-carbonitrile] | < 500 nM
– | – | – | – | – | – | N#Cc1c(N)sc2c(F)ccc(-c3c(Cl)c4c5c(nc(OC[C@@]67CCCN6C[C@H](F)C7)nc5c3F)N(C3CCCCC3O)CCO4)c12 (stereo partly drawn) [Compound 602, 2-amino-4-(8-chloro-10-fluoro-2-(((2R,7aS)-2-fluorotetrahydro-1H-pyrrolizin-7a(5H)-yl)methoxy)-4-(2-hydroxycyclohexyl)-5,6-dihydro-4H-[1,4]oxazepino[5,6,7-de]quinazolin-9-yl)-7-fluorobenzo[b]thiophene-3-carbonitrile] | < 500 nM
– | – | – | – | – | – | N#Cc1c(N)sc2c(F)ccc(-c3c(Cl)c4c5c(nc(OC[C@@]67CCCN6C[C@H](F)C7)nc5c3F)N(CC3CC3C#N)[C@@H](C(F)F)CO4)c12 (stereo partly drawn) [Compound 938, 2-amino-4-((5R)-8-chloro-4-((2-cyanocyclopropyl)methyl)-5-(difluoromethyl)-10-fluoro-2-(((2R,7aS)-2-fluorotetrahydro-1H-pyrrolizin-7a(5H)-yl)methoxy)-5,6-dihydro-4H-[1,4]oxazepino[5,6,7-de]quinazolin-9-yl)-7-fluorobenzo[b]thiophene-3-carbonitrile] | < 500 nM
– | – | – | – | – | – | N#Cc1c(N)sc2c(F)ccc(-c3c(Cl)c4c5c(nc(OC[C@@]67CCCN6C[C@H](F)C7)nc5c3F)N(CC3CC3C#N)[C@@H](C3(O)CC3)CO4)c12 (single isomer, unassigned) [Compound 942] | < 500 nM
– | – | – | – | – | – | C[C@H]1COc2c(Cl)c(-c3ccc(F)c4sc(N)c(C#N)c34)c(F)c3nc(OC[C@@]45CCCN4C[C@H](F)C5)nc(c23)N1C1CCOC1 (stereo partly drawn) [Compound 647, 2-amino-4-((5S)-8-chloro-10-fluoro-2-(((2R,7aS)-2-fluorotetrahydro-1H-pyrrolizin-7a(5H)-yl)methoxy)-5-methyl-4-(tetrahydrofuran-3-yl)-5,6-dihydro-4H-[1,4]oxazepino[5,6,7-de]quinazolin-9-yl)-7-fluorobenzo[b]thiophene-3-carbonitrile] | < 500 nM
– | – | – | – | – | – | C[C@H]1COc2c(Cl)c(-c3ccc(F)c4sc(N)c(C#N)c34)c(F)c3nc(OC[C@@]45CCCN4C[C@H](F)C5)nc(c23)N1CC1CC1C#N (stereo partly drawn) [Compound 731, 2-amino-4-((5S)-8-chloro-4-((2-cyanocyclopropyl)methyl)-10-fluoro-2-(((2R,7aS)-2-fluorotetrahydro-1H-pyrrolizin-7a(5H)-yl)methoxy)-5-methyl-5,6-dihydro-4H-[1,4]oxazepino[5,6,7-de]quinazolin-9-yl)-7-fluorobenzo[b]thiophene-3-carbonitrile] | < 500 nM
< 100 nM | < 100 nM | < 100 nM | < 100 nM | < 5000 nM | < 5000 nM | N#Cc1c(N)sc2c(F)ccc(-c3c(Cl)c4c5c(nc(OC[C@@]67CCCN6C[C@H](F)C7)nc5c3F)N(C3CC(F)(F)C3)CCO4)c12 [Compound 956, 2-amino-4-(8-chloro-4-(3,3-difluorocyclobutyl)-10-fluoro-2-(((2R,7aS)-2-fluorotetrahydro-1H-pyrrolizin-7a(5H)-yl)methoxy)-5,6-dihydro-4H-[1,4]oxazepino[5,6,7-de]quinazolin-9-yl)-7-fluorobenzo[b]thiophene-3-carbonitrile] | –
< 100 nM | < 100 nM | < 100 nM | < 100 nM | < 5000 nM | < 5000 nM | CC(C1CC1)N1CCOc2c(Cl)c(-c3ccc(F)c4sc(N)c(C#N)c34)c(F)c3nc(OC[C@@]45CCCN4C[C@H](F)C5)nc1c23 (stereo partly drawn) [Compound 1054, 2-amino-4-(8-chloro-4-(1-cyclopropylethyl)-10-fluoro-2-(((2R,7aS)-2-fluorotetrahydro-1H-pyrrolizin-7a(5H)-yl)methoxy)-5,6-dihydro-4H-[1,4]oxazepino[5,6,7-de]quinazolin-9-yl)-7-fluorobenzo[b]thiophene-3-carbonitrile] | –
< 100 nM | < 100 nM | < 100 nM | < 100 nM | < 5000 nM | < 5000 nM | CC1(C)CC(N2CCOc3c(Cl)c(-c4ccc(F)c5sc(N)c(C#N)c45)c(F)c4nc(OC[C@@]56CCCN5C[C@H](F)C6)nc2c34)CO1 (stereo partly drawn) [Compound 1071, 2-amino-4-(8-chloro-4-(5,5-dimethyltetrahydrofuran-3-yl)-10-fluoro-2-(((2R,7aS)-2-fluorotetrahydro-1H-pyrrolizin-7a(5H)-yl)methoxy)-5,6-dihydro-4H-[1,4]oxazepino[5,6,7-de]quinazolin-9-yl)-7-fluorobenzo[b]thiophene-3-carbonitrile] | –
